{"source": "patent EP4741392A1", "about": "“1H-PYRAZOLO[4,3-C]PYRIDINE COMPOUND, AND COMPOSITION THEREOF AND USE THEREOF” (Shenzhen TargetRx Co., Ltd., priority 2023, dated 2025)", "assay_type_in_all_cases": "cell-based", "key": {"NIH/3T3 BTK C481S cells": {"system": "NIH/3T3 BTK C481S cells", "assay": "Phosphor-BTK(Y223) assay, adherent cells", "conditions": "read-out: NIH/3T3 BTK-C481S pBTK", "procedure,_shortened": "(§1)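 NIH/3T3 cells expressing WT or C481S BTK were pretreated with compound for 0.5 h at 37 °C, then stimulated with 1 mM Na3VO4 (final) for 2 h. Lysates were assayed by HTRF for p-BTK Y223 using the 665/620 nm ratio. IC50 was obtained by nonlinear fit of % inhibition versus 0.5% DMSO control.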"}, "NIH/3T3 BTK WT cells": {"system": "NIH/3T3 BTK WT cells", "assay": "Phosphor-BTK(Y223) assay, adherent cells", "conditions": "read-out: NIH/3T3 BTK-WT pBTK", "procedure,_shortened": "as §1"}, "Ramos cells with BTK WT": {"system": "Ramos cells with BTK WT", "assay": "Phosphor-BTK(Y223) assay, suspended cells", "conditions": "phosphorylated BTK Y223, Ramos cells with BTK WT", "procedure,_shortened": "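Ramos BTK WT cells (2.5 k/well) were treated with compound dilutions for 2 h at 37 °C, then 5 mM Na3VO4 for 3 h. Lysates were read by HTRF p-BTK(Y223) cryptate/d2 antibodies overnight at RT (665/620 ratio). IC50 came from a four-parameter fit of % inhibition versus blank and positive-control wells.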"}, "[1]": {"conditions": "Mus musculus, NIH3T3, phosphorylated BTK Y223, NIH/3T3 BTK C481S cells"}, "[2]": {"conditions": "Mus musculus, NIH3T3, phosphorylated BTK Y223, NIH/3T3 BTK WT cells"}}, "note": "Read-outs that look alike come from different tables or passages of the source.", "data": [{"compound": "COc1ccc(F)cc1C(=O)NCc1ccc(-c2ncc(-c3nc4cccnc4s3)c3[nH]nc(N)c23)cc1", "note": "[Example 100, N-(4-(3-amino-7-(thiazolo[5,4-b]pyridin-2-yl)-1H-pyrazolo[4,3-c]pyridin-4-yl)benzyl)-5-fluoro-2-methoxybenzamide]", "values": [{"measurement": "IC50", "setting": "NIH/3T3 BTK C481S cells; [1]", "value": "5 to 10", "unit": "nM"}, {"measurement": "IC50", "setting": "NIH/3T3 BTK WT cells; [2]", "value": "≤ 5", "unit": "nM"}, {"measurement": "IC50", "setting": "Ramos cells with BTK WT; Homo sapiens, Ramos", "value": "≤ 5", "unit": "nM"}]}, {"compound": "CCN1CCc2nc(-c3cnc(-c4ccc(CNC(=O)c5cc(F)ccc5OC)cc4)c4c(N)n[nH]c34)sc2C1", "note": "[Example 101, N-(4-(3-amino-7-(5-ethyl-4,5,6,7-tetrahydrothiazolo[5,4-c]pyridin-2-yl)-1H-pyrazolo[4,3-c]pyridin-4-yl)benzyl)-5-fluoro-2-methoxybenzamide]", "values": [{"measurement": "IC50", "setting": "NIH/3T3 BTK C481S cells; [1]", "value": "≤ 5", "unit": "nM"}, {"measurement": "IC50", "setting": "NIH/3T3 BTK WT cells; [2]", "value": "≤ 5", "unit": "nM"}, {"measurement": "IC50", "setting": "Ramos cells with BTK WT; Homo sapiens, Ramos", "value": "≤ 5", "unit": "nM"}]}, {"compound": "COc1ccc(F)cc1C(=O)NCc1ccc(-c2ncc(-c3ccc4c(n3)nc3n4CCOC3)c3[nH]nc(N)c23)cc1", "note": "[Example 102, N-(4-(3-amino-7-(6,7-dihydro-9H-pyrido[2',3':4,5]imidazo[2,1-c][1,4]oxazin-2-yl)-1H-pyrazolo[4,3-c]pyridin-4-yl)benzyl)-5-fluoro-2-methoxybenzamide]", "values": [{"measurement": "IC50", "setting": "NIH/3T3 BTK C481S cells; [1]", "value": "10 to 50", "unit": "nM"}, {"measurement": "IC50", "setting": "NIH/3T3 BTK WT cells; [2]", "value": "10 to 50", "unit": "nM"}, {"measurement": "IC50", "setting": "Ramos cells with BTK WT; Homo sapiens, Ramos", "value": "10 to 50", "unit": "nM"}]}, {"compound": "COc1ccc(F)cc1C(=O)NCc1ccc(-c2ncc(-c3ccc4c(n3)nc3n4C(C)COC3)c3[nH]nc(N)c23)cc1", "note": "(stereo not drawn) [Example 103, N-(4-(3-amino-7-(6-methyl-6,7-dihydro-9H-pyrido[2',3':4,5]imidazo[2,1-c][1,4]oxazin-2-yl)-1H-pyrazolo[4,3-c]pyridin-4-yl)benzyl)-5-fluoro-2-methoxybenzamide]", "values": [{"measurement": "IC50", "setting": "NIH/3T3 BTK C481S cells; [1]", "value": "10 to 50", "unit": "nM"}, {"measurement": "IC50", "setting": "NIH/3T3 BTK WT cells; [2]", "value": "5 to 10", "unit": "nM"}, {"measurement": "IC50", "setting": "Ramos cells with BTK WT; Homo sapiens, Ramos", "value": "10 to 50", "unit": "nM"}]}, {"compound": "COc1ccc(F)cc1C(=O)NCc1ccc(-c2ncc(-c3cccnc3)c3[nH]nc(N)c23)cc1", "note": "[Example 105, N-(4-(3-amino-7-(pyridin-3-yl)-1H-pyrazolo[4,3-c]pyridin-4-yl)benzyl)-5-fluoro-2-methoxybenzamide]", "values": [{"measurement": "IC50", "setting": "NIH/3T3 BTK C481S cells; [1]", "value": "> 50", "unit": "nM"}, {"measurement": "IC50", "setting": "NIH/3T3 BTK WT cells; [2]", "value": "> 50", "unit": "nM"}, {"measurement": "IC50", "setting": "Ramos cells with BTK WT; Homo sapiens, Ramos", "value": "> 50", "unit": "nM"}]}, {"compound": "COc1ccc(F)cc1C(=O)NCc1ccc(-c2ncc(-c3ccncc3)c3[nH]nc(N)c23)cc1", "note": "[Example 106, N-(4-(3-amino-7-(pyridin-4-yl)-1H-pyrazolo[4,3-c]pyridin-4-yl)benzyl)-5-fluoro-2-methoxybenzamide]", "values": [{"measurement": "IC50", "setting": "NIH/3T3 BTK C481S cells; [1]", "value": "> 50", "unit": "nM"}, {"measurement": "IC50", "setting": "NIH/3T3 BTK WT cells; [2]", "value": "> 50", "unit": "nM"}, {"measurement": "IC50", "setting": "Ramos cells with BTK WT; Homo sapiens, Ramos", "value": "> 50", "unit": "nM"}]}, {"compound": "COc1ccc(F)cc1C(=O)NCc1ccc(-c2nc(C3CCOCC3)cc3[nH]nc(N)c23)cc1", "note": "[Example 115, N-(4-(3-amino-6-(tetrahydro-2H-pyran-4-yl)-1H-pyrazolo[4,3-c]pyridin-4-yl)benzyl)-5-fluoro-2-methoxybenzamide]", "values": [{"measurement": "IC50", "setting": "NIH/3T3 BTK C481S cells; [1]", "value": "5 to 10", "unit": "nM"}, {"measurement": "IC50", "setting": "NIH/3T3 BTK WT cells; [2]", "value": "≤ 5", "unit": "nM"}, {"measurement": "IC50", "setting": "Ramos cells with BTK WT; Homo sapiens, Ramos", "value": "≤ 5", "unit": "nM"}]}, {"compound": "COc1ccc(F)cc1C(=O)NCc1ccc(-c2nc([C@H]3CC[C@H](CO)CC3)cc3[nH]nc(N)c23)cc1", "note": "[Example 117, N-(4-(3-amino-6-((1r,4r)-4-(hydroxymethyl)cyclohexyl)-1H-pyrazolo[4,3-c]pyridin-4-yl)benzyl)-5-fluoro-2-methoxybenzamide]", "values": [{"measurement": "IC50", "setting": "NIH/3T3 BTK C481S cells; [1]", "value": "10 to 50", "unit": "nM"}, {"measurement": "IC50", "setting": "NIH/3T3 BTK WT cells; [2]", "value": "10 to 50", "unit": "nM"}, {"measurement": "IC50", "setting": "Ramos cells with BTK WT; Homo sapiens, Ramos", "value": "≤ 5", "unit": "nM"}]}, {"compound": "N-(4-(3-amino-7-(1-(difluoromethyl)-1H-pyrazol-3-yl)-1H-pyrazolo[4,3-c]pyridin-4-yl)benzyl)-5-fluoro-2-methoxybenzamide [Example 29]", "values": [{"measurement": "IC50", "setting": "NIH/3T3 BTK C481S cells; phosphorylated BTK Y223, NIH/3T3 BTK C481S cells", "value": "5 to 10", "unit": "nM"}, {"measurement": "IC50", "setting": "NIH/3T3 BTK WT cells; phosphorylated BTK Y223, NIH/3T3 BTK WT cells", "value": "≤ 5", "unit": "nM"}, {"measurement": "IC50", "setting": "Ramos cells with BTK WT", "value": "≤ 5", "unit": "nM"}]}]}
